Measured values published in US20180028516A1, “METHODS AND DEVICES FOR THE TREATMENT OF OCULAR DISEASES IN HUMAN SUBJECTS” (CLEARSIDE BIOMEDICAL, INC., priority 2012, published 2018).

Assays:
[1] = Electroretinography in porcine uveitis study (Example 13); format: in vivo, domestic weanling pigs; details: after SCS or IVT injections of 0.2 or 2.0 mg TA
Experimental: With the pigs anesthetized on Days −1, 0 and 3, and pupils dilated with 1% tropicamide HCl. and corneas anesthetized with 0.5% proparacaine HCl, whole field ERGs were recorded from the left eve prior to injections. All animals were dark adapted for 15 minutes prior to ERG. A monopolar contact lens electrode (ERG-jet, La Chaux des Fonds, Switzerland) was placed on the cornea to serve as an active electrode. A subdermal electrode at the lateral canthus served as the indifferent electrode. A Barraquer eyelid speculum was placed to maintain open eyelids and a subdermal needle electrode was inserted dorsally as the ground electrode. EKGs were elicited by brief flashes at 0.33 Hz delivered with a mini-ganzfehl photostimulator (Roland Instruments, Wiesbaden, Germany) at maximal intensity. Twenty responses were amplified, filtered, and averaged (Retiport Electrophysiologic Diagnostic Systems, Rolland Instruments, Wiesbaden, Germany). B wave amplitudes were recorded from each pig at the designated times.

[2] = Intraocular pressure after SCS TA (Example 9); format: in vivo, New Zealand White rabbit; details: 3.2 or 5.2 mg TA SCS
Experimental: (§1) In this study, the ocular tolerability and toxicokinetics of suprachoroidal administration of triamcinolone acetonide (TA) using a microneedle in a GLP study in the New Zealand White rabbit.
(§2) On Day 0, New Zealand White (NZW) rabbits were administered a single bilateral supraehoroidal injection of vehicle, 3.2 mg (80 μL) or 5.2 mg (130 μL) of TA (Triesence®, Alcoa labs) using a 33 g 750 μm microneedle. Clinical observations, slit lamp biomicroscopy with McDonald-Shadduck scoring, intraocular pressure assessment (IOP), electroretinography (ERG), and systemic exposure were assessed up to 26 weeks post-dose. Animals were sacrificed on Day 1, Week 13, and Week 26 for macroscopic observations, ocular toxicokinetics, and ocular histopathology.

[3] = Ophthalmic examinations and clinical observations after 4 mg SCS TA (Example 16); format: in vivo, New Zealand White rabbit; details: single bilateral suprachoroidal injection of 4 mg TA, albino rabbit
Experimental: In this study, the ocular tolerability and toxicokinetics of suprachoroidal administration of Ting triamcinolone acetonide (TA) using microneedle was determined, in the New Zealand White rabbit as an animal model.
On Day 0, New Zealand White (NZW) rabbits (4/sex/group/terminal time point, 48 total) were administered a single bilateral suprachoroidal injection of 100 μL of 4 ma TA (40 mg/mL) or vehicle, using a 33 g 750 μm microneedle. Clinical Observations, body weights, food consumption, slit lamp biomicroscopy with McDonald-Shadduck scoring, indirect ophthalmoscopy, intraocular pressure assessment (IOP), central corneal thickness (CCT), electroretinography (ERG), serum chemistry and hematology, and systemic exposure were assessed up to 13 weeks post-dose. Animals were sacrificed on Day 1 or Week 13 and were evaluated for macroscopic observations at necropsy and ocular histopathology. Four animals/sex were given an additional suprachoroidal administration on Day 90, and will be followed for an additional 13 weeks.

[4] = Ophthalmic examinations (slit lamp, fundus) and clinical observations after SCS TA (Example 9); format: in vivo, New Zealand White rabbit
Experimental: as §1, §2

[5] = 3.2 mg TA/eye SCS, F, 13 weeks post administration
[6] = 5.2 mg TA/eye SCS, F, 13 weeks post administration
[7] = 5.2 mg TA/eye SCS, M, 13 weeks post administration

SMILES: CC1(C)O[C@@H]2C[C@H]3[C@@H]4CCC5=CC(=O)C=C[C@]5(C)[C@@]4(F)[C@@H](O)C[C@]3(C)[C@]2(C(=O)CO)O1 [TA, triamcinolone acetonide]
- retinal dysfunction (decrease in b wave amplitude) [1]: no evidence of retinal dysfunction
- effect on IOP [2]: No effect
- tolerability [3]: well tolerated
- Conjunctival congestion (slight, transient), animals with finding [4, 5]: 2
- Conjunctival discharge (slight, transient), animals with finding [4, 5]: 2
- Corneal Staining (slight, transient), animals with finding [4, 5]: 1
- Hyperemia (severe, transient), animals with finding [4, 5]: 1
- Lens Defect (anatomic defect unrelated to administration), animals with finding [4, 5]: 1
- Corneal Staining (slight, transient), animals with finding ([4]; 3.2 mg TA/eye SCS, M, 13 weeks post administration): 1
- Conjunctival discharge (slight, transient), animals with finding [4, 6]: 1
- Corneal Staining (slight, transient), animals with finding [4, 6]: 2
- Conjunctival congestion (slight, transient), animals with finding [4, 7]: 1
- Corneal Staining (slight, transient), animals with finding [4, 7]: 4
- adverse effects on clinical observations, body weight, or ophthalmic examinations ([4]; 3.2 or 5.2 mg TA SCS): no adverse effects
- adverse effects related to treatment ([4]; 3.2 or 5.2 mg TA SCS): no observed adverse effects
- findings during slit lamp biomicroscopy and fundus examination ([4]; 3.2 or 5.2 mg TA SCS, up to 13 weeks): generally mild and transient in nature
